From patent US9907800B2, “Kinase inhibitors and method of treating cancer” (University Health Network, priority 2010, dated 2018) come the findings set out here.

Where a name gives a salt, the structure may show the parent alone. Some results are limits rather than exact numbers.

One test deals with human PLK4 (Homo sapiens (Human), UniProt O00444). Description: PLK4 inhibition assay (indirect ELISA). The test is classed as biochemical. The settings on record: read-out: PLK4 IC50 Ranges.
For another test, the target named is Aurora B (Homo sapiens (Human), UniProt Q96GD4). Description: Aurora B inhibition assay (Z-Lyte). The format is biochemical. The settings on record: read-out: Aurora B IC50 Ranges.
Aurora B, sequence (Q96GD4 whole entry): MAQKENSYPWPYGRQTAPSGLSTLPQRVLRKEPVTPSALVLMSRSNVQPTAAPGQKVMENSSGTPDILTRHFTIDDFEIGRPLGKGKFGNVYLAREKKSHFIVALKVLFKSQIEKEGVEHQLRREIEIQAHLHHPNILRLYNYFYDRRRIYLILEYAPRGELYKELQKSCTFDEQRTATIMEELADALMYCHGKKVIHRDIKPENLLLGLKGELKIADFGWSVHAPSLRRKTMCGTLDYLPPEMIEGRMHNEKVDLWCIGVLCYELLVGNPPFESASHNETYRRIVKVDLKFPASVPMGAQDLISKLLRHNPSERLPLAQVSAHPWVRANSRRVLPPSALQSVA

human PLK4, sequence (O00444 1-391): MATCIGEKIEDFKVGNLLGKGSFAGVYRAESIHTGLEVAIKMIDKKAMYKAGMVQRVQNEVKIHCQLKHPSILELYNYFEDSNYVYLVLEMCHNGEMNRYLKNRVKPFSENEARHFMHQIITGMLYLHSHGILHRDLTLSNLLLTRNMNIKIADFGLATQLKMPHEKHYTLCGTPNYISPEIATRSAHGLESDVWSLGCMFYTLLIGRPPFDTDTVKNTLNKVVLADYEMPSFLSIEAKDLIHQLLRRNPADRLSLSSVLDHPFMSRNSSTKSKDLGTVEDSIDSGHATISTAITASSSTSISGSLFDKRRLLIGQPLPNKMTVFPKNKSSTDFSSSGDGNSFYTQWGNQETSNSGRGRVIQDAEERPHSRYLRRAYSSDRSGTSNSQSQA
Method for Aurora B: Aurora B inhibition was determined using the Z-Lyte assay kit from Invitrogen. […] The % inhibition values were determined according to the manufacturer's directions and IC50 values were obtained using a non-linear 4 point logistic curve fit (XLfit4, IDBS)
Method for human PLK4: PLK4 activity was measured using an indirect ELISA detection system. […] The colourimetric reaction was allowed to continue for 5 minutes, followed by addition of stop solution (0.5 N sulphuric acid), and quantified by detection at 450 nm with either a monochromatic or filter based plate reader (Molecular Devices M5 or Beckman DTX880, respectively).
Compounds were pre-incubated in the presence of enzyme for 15 minutes prior to addition of ATP and the activity remaining quantified using the above described activity assay. […] The IC50 value was determined using a non-linear 4 point logistic curve fit (XLfit4, IDBS) with the formula; (A+(B/(1+((x/C)^D)))), where A=background value, B=range, C=inflection point, D=curve fit parameter.

As to `CN1CCc2cc(/C=C/c3n[nH]c4cc([C@@H]5C[C@@]56C(=O)Nc5ccccc56)ccc34)ccc2C1` [Example A74, (1R,2S)-2-(3-((E)-2-(2-methyl-1,2,3,4-tetrahydroisoquinolin-6-yl)vinyl)-1H-indazol-6-yl)spiro[cyclopropane-1,3′-indolin]-2′-one 2,2,2-trifluoroacetate salt], the IC50 at human PLK4 and on Aurora B was less than 100 nM throughout.
Regarding `COc1ccc2c(c1)[C@]1(C[C@H]1c1ccc3c(/C=C/c4ccc5c(c4)CCN(C)C5)n[nH]c3c1)C(=O)N2` [Example A75, (1R,2S)-5′-methoxy-2-(3-((E)-2-(2-methyl-1,2,3,4-tetrahydroisoquinolin-6-yl)vinyl)-1H-indazol-6-yl)spiro[cyclopropane-1,3′-indolin]-2′-one 2,2,2-trifluoroacetate salt], the IC50 at human PLK4 and on Aurora B was less than 100 nM each time.
For the compound `CN1CCc2cc(-c3n[nH]c4cc([C@@H]5C[C@@]56C(=O)Nc5ccccc56)ccc34)ccc2C1` [Example A76, (1R,2S)-2-(3-(2-methyl-1,2,3,4-tetrahydroisoquinolin-6-yl)-1H-indazol-6-yl)spiro[cyclopropane-1,3′-indolin]-2′-one 2,2,2-trifluoroacetate salt], the IC50 on human PLK4 and at Aurora B was less than 100 nM throughout.
Take `COc1ccc2c(c1)[C@]1(C[C@H]1c1ccc3c(/C=C/c4ccc(OC5CCN(C)CC5)cc4)n[nH]c3c1)C(=O)N2` [Example A79, (1R,2S)-(E)-5′-methoxy-2-(3-(4-(1-methylpiperidin-4-yloxy)styryl)-1H-indazol-6-yl)spiro[cyclopropane-1,3′-indolin]-2′-one 2,2,2-trifluoroacetate salt]: the IC50 at human PLK4 and on Aurora B was less than 100 nM in each case.
On to `CC(C)(c1ccc(/C=C/c2n[nH]c3cc([C@@H]4C[C@@]45C(=O)Nc4ccccc45)ccc23)cc1)N1CCOCC1` [Example A80, (1R,2S)-(E)-2-(3-(4-(2-morpholinopropan-2-yl)styryl)-1H-indazol-6-yl)spiro[cyclopropane-1,3′-indolin]-2′-one 2,2,2-trifluoroacetate salt], for which the figures for the IC50 at human PLK4 and at Aurora B were less than 100 nM and 100 to 1000 nM, respectively.
For `CN1CCC(Cc2ccc(/C=C/c3n[nH]c4cc([C@@H]5C[C@@]56C(=O)Nc5ccccc56)ccc34)cc2)CC1` [Example A81, (1R,2S)-(E)-2-(3-(4-((1-methylpiperidin-4-yl)methyl)styryl)-1H-indazol-6-yl)spiro[cyclopropane-1,3′-indolin]-2′-one 2,2,2-trifluoroacetate salt] the same measures were less than 100 nM and less than 100 nM.
For `COc1ccc2c(c1)[C@]1(C[C@H]1c1ccc3c(/C=C/c4ccc(CC5CCN(C)CC5)cc4)n[nH]c3c1)C(=O)N2` [Example A82, (1R,2S)-(E)-5′-methoxy-2-(3-(4-((1-methylpiperidin-4-yl)methyl)styryl)-1H-indazol-6-yl)spiro[cyclopropane-1,3′-indolin]-2′-one 2,2,2-trifluoroacetate salt], the IC50 at human PLK4 and on Aurora B was less than 100 nM throughout.
As to `COc1ccc2c(c1)[C@]1(C[C@H]1c1ccc3c(/C=C/c4ccc(CN5CCCC5)cc4)n[nH]c3c1)C(=O)N2` [Example A83, (1R,2S)-(E)-5′-methoxy-2-(3-(4-(pyrrolidin-1-ylmethyl)styryl)-1H-indazol-6-yl)spiro[cyclopropane-1,3′-indolin]-2′-one 2,2,2-trifluoroacetate], the IC50 at human PLK4 and at Aurora B was less than 100 nM each time.
Take `CN1C(=O)[C@@]2(C[C@H]2c2ccc3c(/C=C/c4ccc(N5CCNCC5)cc4)n[nH]c3c2)c2ccccc21` [Example A90, (1R,2S)-(E)-1′-methyl-2-(3-(4-(piperazin-1-yl)styryl)-1H-indazol-6-yl)spiro[cyclopropane-1,3′-indolin]-2′-one hydrochloride]: the half-maximal inhibitory concentration (IC50) on human PLK4 and at Aurora B was less than 100 nM in each case.
On to `O=C1Nc2ccccc2[C@]12C[C@H]2c1ccc2c(/C=C/c3ccc(N4CCNCC4)cc3)n[nH]c2c1` [Example A92, (1R,2S)-(E)-2-(3-(4-(piperazin-1-yl)styryl)-1H-indazol-6-yl)spiro[cyclopropane-1,3′-indolin]-2′-one 2,2,2-trifluoroacetate], for which the IC50 at human PLK4 and on Aurora B was less than 100 nM throughout.
Turning to `CN1C(=O)[C@@]2(C[C@H]2c2ccc3c(/C=C/c4ccc(CN5CCCCC5)cc4)n[nH]c3c2)c2ccccc21` [Example A94, (1R,2S)-(E)-1′-methyl-2-(3-(4-(piperidin-1-ylmethyl)styryl)-1H-indazol-6-yl)spiro[cyclopropane-1,3′-indolin]-2′-one hydrochloride], the IC50 at human PLK4 and at Aurora B was less than 100 nM throughout.
In the case of `COc1ccc2c(c1)[C@]1(C[C@H]1c1ccc3c(-c4ccc(N5CCNCC5)cc4)n[nH]c3c1)C(=O)N2C` [Example A101, (1R,2S)-5′-methoxy-1′-methyl-2-(3-(4-(piperazin-1-yl)phenyl)-1H-indazol-6-yl)spiro[cyclopropane-1,3′-indolin]-2′-one 2,2,2-trifluoroacetate], the IC50 on human PLK4 and on Aurora B was less than 100 nM throughout.
With `COc1ccc2c(c1)[C@]1(C[C@H]1c1ccc3c(/C=C/c4ccc(CN5CCOCC5)s4)n[nH]c3c1)C(=O)N2` [Example A105, (1R,2S)-5′-methoxy-2-(3-((E)-2-(5-(morpholinomethyl)thiophen-2-yl)vinyl)-1H-indazol-6-yl)spiro[cyclopropane-1,3′-indolin]-2′-one hydrochloride], the IC50 on human PLK4 and on Aurora B was less than 100 nM in each case.
In the case of `COc1ccc2c(c1)[C@]1(C[C@H]1c1ccc3c(-c4ccc5nccn5c4)n[nH]c3c1)C(=O)N2` [Example A107, (1R,2S)-2-(3-(imidazo[1,2-a]pyridin-6-yl)-1H-indazol-6-yl)-5′-methoxyspiro[cyclopropane-1,3′-indolin]-2′-one 2,2,2-trifluoroacetate], the IC50 at human PLK4 and at Aurora B was less than 100 nM throughout.
Turning to `COc1ccc2c(c1)[C@]1(C[C@H]1c1ccc3c(-c4ccc(OCCn5ccnc5)cc4)n[nH]c3c1)C(=O)N2` [Example A108, (1R,2S)-2-(3-(4-(2-(1H-imidazol-1-yl)ethoxy)phenyl)-1H-indazol-6-yl)-5′-methoxyspiro[cyclopropane-1,3′-indolin]-2′-one 2,2,2-trifluoroacetate], the IC50 on human PLK4 and at Aurora B was less than 100 nM in each case.
In the case of `CN1CCN(c2ccc(/C=C/c3n[nH]c4cc([C@@H]5C[C@@]56C(=O)N(C)c5ccccc56)ccc34)cn2)CC1` [Example A110, (1R,2S)-1′-methyl-2-(3-((E)-2-(6-(4-methylpiperazin-1-yl)pyridin-3-yl)vinyl)-1H-indazol-6-yl)spiro[cyclopropane-1,3′-indolin]-2′-one bis(2,2,2-trifluoro acetate)], the 50% inhibitory concentration (IC50) on human PLK4 and at Aurora B was less than 100 nM each time.
On to `COc1ccc2c(c1)[C@]1(C[C@H]1c1ccc3c(/C=C/c4ccncc4)n[nH]c3c1)C(=O)N2` [Example A111, (1R,2S)-5′-methoxy-2-(3-((E)-2-(pyridin-4-yl)vinyl)-1H-indazol-6-yl)spiro[cyclopropane-1,3′-indolin]-2′-one 2,2,2-trifluoroacetate], for which the IC50 on human PLK4 and at Aurora B was less than 100 nM throughout.
On to `O=C1Nc2ccccc2[C@]12C[C@H]2c1ccc2c(/C=C/c3cc(F)c(CN4CCOCC4)c(F)c3)n[nH]c2c1` [Example A116, (1R,2S)-(E)-2-(3-(3,5-difluoro-4-(morpholinomethyl)styryl)-1H-indazol-6-yl)spiro[cyclopropane-1,3′-indolin]-2′-one 2,2,2-trifluoroacetate], for which the concentration for half-maximal inhibition (IC50) at human PLK4 and on Aurora B was less than 100 nM each time.
Take `COc1ccc2c(c1)[C@]1(C[C@H]1c1ccc3c(-c4ccc(N5CCC(N6CCOCC6)CC5)cc4)n[nH]c3c1)C(=O)N2` [Example A121, (1R,2S)-5′-methoxy-2-(3-(4-(4-morpholinopiperidin-1-yl)phenyl)-1H-indazol-6-yl)spiro[cyclopropane-1,3′-indolin]-2′-one 2,2,2-trifluoroacetate]: the half-inhibitory concentration (IC50) on human PLK4 and at Aurora B was less than 100 nM each time.
For the compound `COc1ccc2c(c1)[C@]1(C[C@H]1c1ccc3c(-c4ccc(C5CCN(C)CC5)cc4)n[nH]c3c1)C(=O)N2` [Example A123, (1R,2S)-5′-methoxy-2-(3-(4-(1-methylpiperidin-4-yl)phenyl)-1H-indazol-6-yl)spiro[cyclopropane-1,3′-indolin]-2′-one hydrochloride], the 50% inhibitory concentration (IC50) at human PLK4 and at Aurora B was less than 100 nM each time.
In the case of `COc1ccc2c(c1)[C@]1(C[C@H]1c1ccc3c(-c4ccc(N5CC[C@@H](N(C)C)C5)cc4)n[nH]c3c1)C(=O)N2` [Example A127, (1R,2S)-2-(3-(4-((R)-3-(dimethylamino)pyrrolidin-1-yl)phenyl)-1H-indazol-6-yl)-5′-methoxyspiro[cyclopropane-1,3′-indolin]-2′-one 2,2,2-trifluoroacetate], the 50% inhibitory concentration (IC50) on human PLK4 and at Aurora B was less than 100 nM each time.
On to `CCN(CC)Cc1c(F)cc(/C=C/c2n[nH]c3cc([C@@H]4C[C@@]45C(=O)Nc4ccc(OC)cc45)ccc23)cc1F` [Example A146, (1R,2S)-(E)-2-(3-(4-((diethylamino)methyl)-3,5-difluorostyryl)-1H-indazol-6-yl)-5′-methoxyspiro[cyclopropane-1,3′-indolin]-2′-one 2,2,2-trifluoroacetate], for which the 50% inhibitory concentration (IC50) at human PLK4 and at Aurora B was less than 100 nM each time.
For `COc1ccc2c(c1)[C@]1(C[C@H]1c1ccc3c(/C=C/c4csc(CN5CCOCC5)c4)n[nH]c3c1)C(=O)N2` [Example A183, (1R,2S)-5′-methoxy-2-(3-((E)-2-(5-(morpholinomethyl)thiophen-3-yl)vinyl)-1H-indazol-6-yl)spiro[cyclopropane-1,3′-indolin]-2′-one 2,2,2-trifluoroacetate], the IC50 on human PLK4 and on Aurora B was less than 100 nM throughout.

In general, IC50 refers to the concentration at which inhibition is half-maximal.
